Measurements as given in patent US20230183243A1, “HETEROARYL DERIVATIVES AND PHARMACEUTICAL COMPOSITION COMPRISING SAME AS ACTIVE INGREDIENT” (VORONOI INC., priority 2019, published 2023).

Experiments:
MDA-MB-231 cells = assay: Inhibition of proliferation of triple-negative breast cancer cells, CellTiter-Glo; assay type: cell-based; settings: Homo sapiens, 120 h; MDA-MB-231, cultured for 5 days
Protocol: Specifically, the following test was performed in order to evaluate the inhibitory activity of the compound according to the present invention against the cell proliferation in triple-negative breast cancer cells (TNBCs).
Cells were seeded in 180 μL of a culture broth at a density of 2,000 to 3,000 cells/well in a white clear bottom 96-well plate (Corning) according to the growth ability of each cell, and then cultured for 24 hours under conditions of 5% CO2 and 37° C. Thereafter, the compound was prepared by diluting a 10 mM stock solution three-fold with 100% DMSO at a total of 12 concentrations so that a peak concentration of the compound was in a range of 10 mM to 0.05 μM, and the diluted compound was then diluted in each cell culture medium so that a final concentration of the compound was in a range of 100 μM to 0.5 nM. 20 μL of a diluted solution diluted with a medium was added to the cell solution in which cells were seeded in the 96-well plate on the previous day so that a final concentration of the diluted solution was in a range of 10 μM to 0.05 nM. Each of the cells was cultured for 5 days. To check cell viability, a mixture provided in a CellTiter-Glo® Luminescent Cell Viability Assay Kit (Promega) was added to each of the cultured cell media, and cultured for another 10 minutes under a condition of 37° C. Then, a degree of luminescence (fluorescence) was measured. A degree of inhibition of the cell growth according to the treatment concentration of each of the compounds was calculated based on the fluorescence of the solvent control cells which were not treated with the compound.

TTK = target: T1, TTK (Homo sapiens, UniProt P33981); assay: TTK enzyme activity, ADP-Glo kinase assay; assay type: biochemical; set-up: purchased SignalChem T20-10G; settings: purified human TTK, ATP 10 μM, 25° C., 2 hours
T1 sequence (P33981 1-857): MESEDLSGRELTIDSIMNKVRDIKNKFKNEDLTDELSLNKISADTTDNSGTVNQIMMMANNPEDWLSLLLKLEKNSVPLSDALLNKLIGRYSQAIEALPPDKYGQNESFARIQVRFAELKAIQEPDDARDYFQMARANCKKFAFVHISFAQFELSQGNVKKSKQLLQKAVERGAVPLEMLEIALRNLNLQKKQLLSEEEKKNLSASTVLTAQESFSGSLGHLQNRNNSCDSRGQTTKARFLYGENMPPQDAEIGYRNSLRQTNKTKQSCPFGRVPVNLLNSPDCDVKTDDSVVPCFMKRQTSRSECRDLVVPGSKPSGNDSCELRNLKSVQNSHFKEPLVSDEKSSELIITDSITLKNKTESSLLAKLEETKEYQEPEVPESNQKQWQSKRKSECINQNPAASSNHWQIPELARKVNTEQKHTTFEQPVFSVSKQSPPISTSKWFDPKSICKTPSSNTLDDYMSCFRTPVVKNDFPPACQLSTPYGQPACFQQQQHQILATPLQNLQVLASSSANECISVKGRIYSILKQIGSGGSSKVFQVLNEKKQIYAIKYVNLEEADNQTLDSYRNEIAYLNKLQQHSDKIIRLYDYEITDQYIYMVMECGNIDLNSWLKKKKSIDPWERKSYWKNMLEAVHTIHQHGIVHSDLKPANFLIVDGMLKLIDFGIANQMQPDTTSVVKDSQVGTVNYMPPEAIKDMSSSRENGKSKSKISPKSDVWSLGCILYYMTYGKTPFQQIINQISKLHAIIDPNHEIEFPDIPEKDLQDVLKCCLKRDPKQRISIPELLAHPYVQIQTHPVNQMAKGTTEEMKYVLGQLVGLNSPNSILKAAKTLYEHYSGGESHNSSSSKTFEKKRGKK
Protocol: To evaluate an inhibitory activity of the compound according to the present invention against TTK (MPS1), an experiment was performed as follows.
Each of the Example compounds was reacted with a purified human TTK (SignalChem #T20-10G) enzyme to evaluate an ability to inhibit an enzyme using a method as described below. A composition of 40 mM Tris-HCl (pH 7.4), 20 mM MgCl2, 0.5 mg/mL BSA, and 50 μM DTT was used as a reaction buffer, and all reactions of test substances were performed in the reaction buffer. […] In the test, purified ATP (10 μM) and an enzyme substrate (0.2 μg) were reacted with a human TTK (25 ng) enzyme at 25° C. for 2 hours, and the enzyme activity was determined using an in vitro ADP-Glo™ kinase assay (Promega). […] The degree of inhibition of the enzyme activity according to the treatment concentration of each of the compounds was calculated based on the fluorescence of the enzyme activity of the solvent control which was not treated with the compound.

| Compound | GI50 (MDA-MB-231 cells) [nM] | IC50 (TTK) [nM] |
| --- | --- | --- |
| N#Cc1c[nH]c2nc(Nc3ccc(N4CCCC4=O)c4c3OCCO4)nc(NC3CCCCC3)c12 [Example 79, 4-(cyclohexylamino)-2-((8-(2-oxopyrrolidin-1-yl)-2,3-dihydrobenzo[b][1,4]dioxin-5-yl)amino)-7H-pyrrolo[2,3-d] pyrimidine-5-carbonitrile] | < 100 | < 50 |
| CC(C)COc1cc(N2CCCC2=O)ccc1Nc1nc(NC2CCCC2)c2c(C#N)c[nH]c2n1 [Example 28, 4-(cyclopentylamino)-2-((2-isobutoxy-4-(2-oxopyrrolidin-1-yl)phenyl)amino)-7H-pyrrolo[2,3-d] pyrimidine-5-carbonitrile] | > 1000 | 200 to 1000 |
| CCOc1cc(N2CCCC2=O)ccc1Nc1nc(NC2CCCCC2)c2c(C#N)c[nH]c2n1 [Example 78, 4-(cyclohexylamino)-2-((2-ethoxy-4-(2-oxopyrrolidin-1-yl)phenyl)amino)-7H-pyrrolo[2,3-d] pyrimidine-5-carbonitrile] | 100 to 1000 |  |
| CCOc1cc(-c2nncn2C)ccc1Nc1nc(C2CC2)c2c(C#N)c[nH]c2n1 [Example 46, 4-cyclopropyl-2-((2-ethoxy-4-(4-methyl-4H-1,2,4-triazol-3-yl)phenyl)amino)-7H-pyrrolo[2,3-d] pyrimidine-5-carbonitrile] | > 1000 | 200 to 1000 |
| COc1cc(-c2cnn(C3CCOCC3)c2)ccc1Nc1nc(NC2CCCCC2)c2c(C#N)c[nH]c2n1 [Example 19, 4-(cyclohexylamino)-2-((2-methoxy-4-(1-(tetrahydro-2H-pyran-4-yl)-1H-pyrazol-4-yl)phenyl)amino)-7H-pyrrolo[2,3-d] pyrimidine-5-carbonitrile] | < 100 | 50 to 200 |
| COc1cc(N2CCOCC2=O)ccc1Nc1nc(NC2CCCCC2)c2c(C#N)c[nH]c2n1 [Example 81, 4-(cyclohexylamino)-2-((2-methoxy-4-(3-oxomorpholino)phenyl)amino)-7H-pyrrolo[2,3-d] pyrimidine-5-carbonitrile] | < 100 |  |
| N#Cc1c[nH]c2nc(Nc3ccc(N4CCCC4=O)cc3)nc(NC3CCCCC3)c12 [Example 80, 4-(cyclohexylamino)-2-((4-(2-oxopyrrolidin-1-yl)phenyl)amino)-7H-pyrrolo[2,3-d] pyrimidine-5-carbonitrile] | < 100 |  |
| COc1cc(N2CCCC2=O)ccc1Nc1nc(NCC(C)(C)C)c2c(C#N)c[nH]c2n1 [Example 77, 2-((2-methoxy-4-(2-oxopyrrolidin-1-yl)phenyl)amino)-4-(neopentylamino)-7H-pyrrolo[2,3-d] pyrimidine-5-carbonitrile] | 100 to 1000 |  |
| COc1cc(N2CCCC2=O)ccc1Nc1nc(NC2CCOCC2)c2c(C#N)c[nH]c2n1 [Example 74, 2-((2-methoxy-4-(2-oxopyrrolidin-1-yl)phenyl)amino)-4-((tetrahydro-2H-pyran-4-yl)amino)-7H-pyrrolo[2,3-d] pyrimidine-5-carbonitrile] | > 1000 |  |

Now from value to molecule:

| GI50 (MDA-MB-231 cells) [nM] | IC50 (TTK) [nM] | Compound |
| --- | --- | --- |
| < 100 | < 50 | COc1cc(-c2c(C)noc2C)ccc1Nc1nc(NC2CCCCC2)c2c(C#N)c[nH]c2n1 [Example 18, 4-(cyclohexylamino)-2-((4-(3,5-dimethylisoxazol-4-yl)-2-methoxyphenyl)amino)-7H-pyrrolo[2,3-d] pyrimidine-5-carbonitrile] |
| < 100 | < 50 | COc1cc(-c2cnn(C3COC3)c2)ccc1Nc1nc(NC2CCCCC2)c2c(C#N)c[nH]c2n1 [Example 20, 4-(cyclohexylamino)-2-((2-methoxy-4-(1-(oxetan-3-yl)-1H-pyrazol-4-yl)phenyl)amino)-7H-pyrrolo[2,3-d] pyrimidine-5-carbonitrile] |
| < 100 | < 50 | CC[C@H](C)Nc1nc(Nc2ccc(-c3ccnn3C)cc2OC)nc2[nH]cc(C#N)c12 [Example 1, (S)-4-(sec-butylamino)-2-((2-methoxy-4-(1-methyl-1H-pyrazol-5-yl)phenyl)amino)-7H-pyrrolo[2,3-d] pyrimidine-5-carbonitrile 2,2,2-trifluoroacetate] |
|  | 50 to 200 | COc1cc(-c2ccnn2C)ccc1Nc1nc(NCC2CCCC2)c2c(C#N)c[nH]c2n1 [Example 8, 4-((cyclopentylmethyl)amino)-2-((2-methoxy-4-(1-methyl-1H-pyrazol-5-yl)phenyl)amino)-7H-pyrrolo[2,3-d] pyrimidine-5-carbonitrile] |
| > 1000 |  | COc1cc(-c2ccnn2C)ccc1Nc1nc(NC2CCCCC2)c2c(Cl)c[nH]c2n1 [Example 5, 5-chloro-N^4-cyclohexyl-N^2-(2-methoxy-4-(1-methyl-1H-pyrazol-5-yl)phenyl)-7H-pyrrolo[2,3-d] pyrimidine-2,4-diamine] |
| < 100 |  | COc1cc(-n2cc(C)nc2C)ccc1Nc1nc(NC2CCCCC2)c2c(C#N)c[nH]c2n1 [Example 34, 4-(cyclohexylamino)-2-((4-(2,4-dimethyl-1H-imidazol-1-yl)-2-methoxyphenyl)amino)-7H-pyrrolo[2,3-d] pyrimidine-5-carbonitrile] |
| < 100 |  | CCOc1cc(-c2ccnn2C)ccc1Nc1nc(NC2CCCCC2)c2c(C#N)c[nH]c2n1 [Example 36, 4-(cyclohexylamino)-2-((2-ethoxy-4-(1-methyl-1H-pyrazol-5-yl)phenyl)amino)-7H-pyrrolo[2,3-d] pyrimidine-5-carbonitrile] |
|  | < 50 | COCCNc1nc(Nc2ccc(-c3ccnn3C)cc2OC)nc2[nH]cc(C#N)c12 [Example 13] |
|  | < 50 | COc1cc(-c2ccnn2C)ccc1Nc1nc(NC2CCOCC2)c2c(C#N)c[nH]c2n1 [Example 15, 2-((2-methoxy-4-(1-methyl-1H-pyrazol-5-yl)phenyl)amino)-4-((tetrahydro-2H-pyran-4-yl)amino)-7H-pyrrolo[2,3-d] pyrimidine-5-carbonitrile] |
| > 1000 |  | COc1cc(-c2ccnn2C)ccc1Nc1nc(NC2CCCCC2)c2c(C(F)(F)F)c[nH]c2n1 [Example 6, N^4-cyclohexyl-N^2-(2-methoxy-4-(1-methyl-1H-pyrazol-5-yl)phenyl)-5-(trifluoromethy1)-7H-pyrrolo[2,3-d] pyrimidine-2,4-diamine] |
| < 100 |  | COc1cc(-c2ccnn2C)ccc1Nc1nc(OC2CCCCC2)c2c(C#N)c[nH]c2n1 [Example 45, 4-(cyclohexyloxy)-2-((2-methoxy-4-(1-methyl-1H-pyrazol-5-yl)phenyl)amino)-7H-pyrrolo[2,3-d] pyrimidine-5-carbonitrile] |
| 100 to 1000 |  | COc1cc(-c2ccnn2C)ccc1Nc1nc(NC2CCCCC2)c2cc[nH]c2n1 [Example 4, N^4-cyclohexyl-N^2-(2-methoxy-4-(1-methyl-1H-pyrazol-5-yl)phenyl)-7H-pyrrolo[2,3-d] pyrimidine-2,4-diamine] |
| < 100 |  | Cn1nccc1-c1ccc(Nc2nc(NC3CCCCC3)c3c(C#N)c[nH]c3n2)cc1 [Example 37, 4-(cyclohexylamino)-2-((4-(1-methyl-1H-pyrazol-5-yl)phenyl)amino)-7H-pyrrolo[2,3-d] pyrimidine-5-carbonitrile] |
